Data on five compounds can be found in ChEMBL document CHEMBL6103552, “Identification of peptide-based hepatitis B virus capsid inhibitors based on the viral core protein” (Bioorg Med Chem Lett, 2025).

What all share (type): subcellular
Experiment [1] has as its target Core antigen (Hepatitis B virus) (UniProt Q03732). Put plainly: Inhibition of Hepatitis B virus capsid formation at 100 uM treated during cell-free HBV Cp T33N mutant synthesis using wheat germ lysates and HBV Cp RNA by Denatured capsid assay based western blot analysis.
The target in another experiment is Core antigen (Hepatitis B virus, UniProt Q03732). Put plainly: Inhibition of Hepatitis B virus capsid formation treated during cell-free wild type HBV Cp synthesis using wheat germ lysates and HBV Cp RNA by Denatured capsid assay based western blot analysis.
Chain of Core antigen (Q03732 whole entry): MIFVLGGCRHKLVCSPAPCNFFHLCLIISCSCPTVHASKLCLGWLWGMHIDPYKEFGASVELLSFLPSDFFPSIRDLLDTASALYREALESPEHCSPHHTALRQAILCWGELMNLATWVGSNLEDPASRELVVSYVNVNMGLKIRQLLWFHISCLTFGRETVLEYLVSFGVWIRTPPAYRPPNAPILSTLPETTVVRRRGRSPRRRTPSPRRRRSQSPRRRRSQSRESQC
The target of experiment [2] is Core antigen (Hepatitis B virus) (UniProt Q03732). Put plainly: Inhibition of Hepatitis B virus capsid formation at 10 uM treated during cell-free HBV Cp T33N mutant synthesis using wheat germ lysates and HBV Cp RNA by Denatured capsid assay based western blot analysis.
Chain of Core antigen (Hepatitis B virus) (Q03732 as listed by the source): as the sequence (Q03732 whole entry) above
Experiment [3] shares this target. Nature of the experiment: Inhibition of Hepatitis B virus capsid formation at 100 uM treated during cell-free wild type HBV Cp synthesis using wheat germ lysates and HBV Cp RNA by Native capsid assay based western blot analysis.
The target is the same in experiment [4]. Nature of the experiment: Inhibition of Hepatitis B virus capsid formation at 3 uM treated during cell-free wild type HBV Cp synthesis using wheat germ lysates and HBV Cp RNA by Native capsid assay based western blot analysis.

Activity calls are given as the source filed them. Unless noted, no cut-off for these calls is given here. Residues, ends and D or L forms follow the SMILES beside them.

On to `CC[C@H](C)[C@H](NC(=O)[C@H](Cc1c[nH]cn1)NC(=O)[C@H](Cc1ccccc1)NC(=O)[C@H](Cc1c[nH]c2ccccc12)NC(=O)[C@H](CC(C)C)NC(=O)[C@H](CC(C)C)NC(=O)[C@H](CCC(N)=O)NC(=O)[C@H](CCCNC(=N)N)NC(=O)[C@H](Cc1ccccc1)NC(=O)[C@H](CCCCN)NC(=O)[C@H](CC(C)C)NC(=O)CNC(=O)[C@H](CCSC)NC(=O)[C@H](CC(N)=O)NC(=O)[C@@H](NC(C)=O)C(C)C)C(N)=O`, for which the inhibition entry in experiment [1] is “Active; Comparable Activity To Gls4, Positive Control”; in experiment [2], “Active; Same Efficacy As Gls4 Observed”; in experiment [3] it was “Active; Significantly Inhibited Hbv-Capsid Formation Of 72 Peptides Tested”. The compound also returned a concentration for half-maximal inhibition (IC50) on Core antigen of 97.8 µM.

For the compound `CCOC(=O)C1=C(CN2CCOCC2)NC(c2nccs2)=NC1c1ccc(F)cc1Br` (stereo unspecified), the inhibition entry in experiment [4] was “Active”.

For `CC[C@H](C)[C@H](NC(=O)[C@H](Cc1c[nH]cn1)NC(=O)[C@H](Cc1ccccc1)NC(=O)[C@H](Cc1c[nH]c2ccccc12)NC(=O)[C@H](CC(C)C)NC(=O)[C@H](CC(C)C)NC(=O)[C@H](CCC(N)=O)NC(=O)[C@H](CCCNC(=N)N)NC(=O)[C@H](Cc1ccccc1)NC(=O)[C@H](CCCCN)NC(C)=O)C(=O)N[C@@H](CO)C(=O)N[C@@H](CS)C(=O)N[C@@H](CC(C)C)C(=O)N[C@H](C(=O)N[C@@H](Cc1ccccc1)C(N)=O)[C@@H](C)O` (Ac-KFRQLLWFHISCLTF-NH2), the inhibition entry in experiment [1] was “Active; Comparable Activity To Gls4, Positive Control”; in experiment [2] it was “Active; Greater Efficacy Compared To Gls4 Observed”; in experiment [3] it was “Active; Significantly Inhibited Hbv-Capsid Formation Of 72 Peptides Tested”. In addition, the midpoint of inhibition against Core antigen, the IC50, lay at 43.7 µM.

With `CC(C)[C@H](NC(=O)[C@@H](NC(=O)[C@@H](NC(=O)[C@@H](N)[C@@H](C)O)[C@@H](C)O)C(C)C)C(=O)N[C@@H](CCCNC(=N)N)C(=O)N[C@@H](CCCNC(=N)N)C(=O)N[C@@H](CCCNC(=N)N)C(=O)NCC(=O)N[C@@H](CCCNC(=N)N)C(=O)N[C@@H](CO)C(=O)N1CCC[C@H]1C(=O)N[C@@H](CCCNC(=N)N)C(=O)N[C@@H](CCCNC(=N)N)C(=O)N[C@@H](CCCNC(=N)N)C(=O)N[C@H](C(N)=O)[C@@H](C)O` (H-TTVVRRRGRSPRRRT-NH2), in experiment [3], the inhibition entry is “inactive”.

On to `CSCC[C@H](NC(=O)[C@H](CC(N)=O)NC(=O)[C@@H](NC(=O)[C@H](CC(N)=O)NC(=O)[C@@H](NC(=O)[C@H](Cc1ccc(O)cc1)NC(=O)[C@H](CO)NC(=O)[C@@H](N)C(C)C)C(C)C)C(C)C)C(=O)NCC(=O)N[C@@H](CC(C)C)C(=O)N[C@@H](CCCCN)C(=O)N[C@@H](Cc1ccccc1)C(=O)N[C@@H](CCCNC(=N)N)C(=O)N[C@@H](CCC(N)=O)C(=O)N[C@@H](CC(C)C)C(N)=O` (H-VSYVNVNMGLKFRQL-NH2), for which the inhibition result in experiment [3] was “inactive”.
